For one data set, the target named is HIV-1 protease (Human immunodeficiency virus type 1 group M subtype B, UniProt P04585). Briefly: Fluorescence HIV-1 Protease Inhibitor Assay (Pandex). It is filed as biochemical. Also noted: made in house; host or cells: E. coli K12 L507/pHP10D (NRRL B-18560). Conditions: normalized to positive control (=1.0); * = a calculated average; read-out: Fluorescence Assay IC50 in ng/mL (converted).

In turn, `CC(C)(C)NC(=O)c1ccccc1C[C@@H](O)[C@@H](CSc1ccc2ccccc2c1)NC(=O)c1cccc2[nH]ccc12` [Example 62, [2′R-(2′R*,3′S*)]-N-t-Butyl-2-[2′-hydroxy-3′-naphth-2-ylthiomethyl-4′-aza-5′-oxo-5′-(indol-4″-yl)pentyl] benzamide] had a melting point of 109 to 110 °C. Also, the IC50 on HIV-1 protease is 350 nM.
The matching figures for `CC(C)(C)NC(=O)c1ccccc1C[C@@H](O)[C@@H](CSc1ccc2ccccc2c1)NC(=O)c1cccc2c1CCN2` [Example 65, [2′R-(2′R*,3′S*)]-N-t-Butyl-2-[2′-hydroxy-3′-naphth-2-ylthiomethyl-4′-aza-5′-oxo-5′-(indolin-4″-yl)pentyl] benzamide]: 83 to 84 °C and 687 nM.
The molecule `CC(C)(C)NC(=O)c1ccccc1C[C@@H](O)[C@@H](CSc1ccc2ccccc2c1)NC(=O)c1ccnc2ccccc12` [Example 66, [2′R-(2′R*,3′S*)]-N-t-Butyl-2-[2′-hydroxy-3′-naphth-2-ylthiomethyl-4′-aza-5′-oxo-5′-(quinolin-4″-yl)pentyl] benzamide] yielded a melting point of 89 to 92 °C. At HIV-1 protease, the IC50 was 474 nM.
For the molecule `Cc1c(C(=O)NC(CSc2ccc3ccccc3c2)C(O)Cc2ccccc2C(=O)NC(C)(C)C)cccc1[N+](=O)[O-]` (stereo not drawn) [Example 67, [2′R-(2′R*,3′S*)]-N-t-Butyl-2-[2′-hydroxy-3′-naphth-2-hiomethyl-4′-aza-5′-oxo-5′-(2″-methyl-3″-nitrophenyl)pentyl] benzamide], the melting point lay within 80 to 81 °C. Also, the IC50 on HIV-1 protease was 927 nM.
The matching figures for `Cc1ccc([N+](=O)[O-])cc1C(=O)NC(CSc1ccc2ccccc2c1)C(O)Cc1ccccc1C(=O)NC(C)(C)C` (stereo not drawn) [Example 68, [2′R-(2′R*,3′S*)]-N-t-Butyl-2-[2′-hydroxy-3′-naphth-2-ylthiomethyl-4′-aza-5′-oxo-5′-(3″-nitro-6″-methylphenyl)pentyl] benzamide]: 85 to 88 °C and 17100 nM.
The matching figures for `Cc1c(C(=O)NC(CSc2ccc3ccccc3c2)C(O)Cc2ccccc2C(=O)NC(C)(C)C)ccc(O)c1O` (stereo not drawn) [Example 70, [2′R-(2′R*,3′S*)]-N-t-Butyl-2-[2′-hydroxy-3′-naphth-2-ylthiomethyl-4′-aza-5′-oxo-5′-(2″-methyl-3″,4″-dihydroxyphenyl)pentyl] benzamide]: 121 to 123 °C and 183 nM.
For `CC(C)(C)NC(=O)c1ccccc1CC(O)C(CSc1ccc2ccccc2c1)NC(=O)c1ccc(N)cc1Cl` (stereo not drawn) [Example 71, [2′R-(2′R*,3′S*)]-N-t-Butyl-2-[2′-hydroxy-3′-naphth-2-ylthiomethyl-4′-aza-5′-oxo-5′-(2″-chloro-4″-aminophenyl)pentyl] benzamide], in that order: 102 to 104 °C and 312 nM.
`CC(C)(C)NC(=O)c1ccccc1CC(O)C(CSc1ccc2ccccc2c1)NC(=O)c1ccc(N)c(O)c1` (stereo not drawn) [Example 73, [2′R-(2′R*,3′S*)]-N-t-Butyl-2-[2′-hydroxy-3′-naphth-2-ylthiomethyl-4′-aza-5′-oxo-5′-(3″-hydroxy-4″-aminophenyl)pentyl] benzamide] displayed a melting point of 119 to 122 °C. Besides, on HIV-1 protease, the IC50 was 3480 nM.

What is called melting point is the temperature of the solid-liquid transition.

The record behind these values is patent US20030216569A1, “Method of making HIV protease inhibitors” (priority 1993, published 2003).
